Reference: patent US20220265597A1, “ANTIVIRAL EFFECTS OF NARASIN IN SWINE FEED” (Elanco US Inc., priority 2014, published 2022)
Marks after values point to notes of the source that are not given here.

What was measured:
[1] = system: PEDV; assay: Enteric clinical observation scoring (diarrhea, depression, gauntness) of nursery pigs challenged with PEDV; format: in vivo, pig; set-up: Depression score, Severity: scale not given here; conditions: for Depression score, Severity / Diarrhea score, Severity / Gauntness score, Severity: average of worst score of each pig over 14-d period; for Depression score, Incidence / Diarrhea score, Incidence / Gauntness score, Incidence: pigs affected/pigs; for Gauntness score, Mean of Day 0 to 14: score 0-2; for Depression score, Mean of Day 0 to 14: score 0-3; for Diarrhea score, Mean of Day 0 to 14: score 1-4
Experimental: (§1) The seventy-five piglets were randomly assigned to one of three treatment groups: control (no ionophore), narasin (30 mg/kg) and narasin (60 mg/kg). They acclimatized to their environment and were fed daily for seven days prior to exposure with PEDV on Day 0. Treatment continued for 14 days following challenge. Pigs from the three treatment groups were administered orally with 4×10^4 TCID50/mL of the PEDV isolate PEDV/USA/NC/2013/49469 (College of Veterinary Medicine, Iowa State University). The piglets were monitored daily for changes in clinical parameters, clinical score for diarrhea, depression and gauntness, rate of food consumption, and rate of body weight change and viral swabs were taken daily to determine viral shedding.
Incidence and severity of the score data (diarrhea, depression, and gauntness) were summarized by frequencies and mean scores on a daily basis.
Table 2 indicates the scoring system used to measure diarrhea, depression, and gauntness. Table 3 compares the mean scores for diarrhea, depression and gauntness in nursery pigs whose diet included 0, 30 or 60 mg/kg narasin.

[2] = system: flavivirus responsible for dengue fever; conditions: added to cultured human cells infected with the virus (Low, et al. 2011); cited from earlier work
[3] = system: PEDV; assay: Intestinal histology score and immunohistochemistry of PEDV-challenged nursery pigs; format: in vivo, pig; conditions: not significant (P>0.05)
Experimental: (§2) Viral shedding values was evaluated by RMANOVA and the PROC MIXED procedure of SAS (SAS, Cary, N.C.). Other variables for analysis included growth performance data (average daily gain, or ADG; average daily feed intake, or ADFI; and feed efficiency (unit of weight gain per unit of feed consumed), or G:F), incidence and severity of diarrhea, depression, and gauntness scores, and intestinal histology score and immunohistochemistry. The analysis of the growth performance outcomes were conducted using a generalized linear mixed model and the PROC MIXED procedure of SAS.
The effects of narasin inclusion level on the intestinal histology score and immunohistochemistry were analyzed. As narasin level increased from 0, 30, 60 mg/kg), histology scores decreased from 2 to 0 while the immunohistochemistry score decreased only at the 60 mg/kg level (from 3 to 2) although differences were not significant (P>0.05).

[4] = system: nursery pigs; conditions: about 83 mg/kg feed, at least in the presence of tiamulin; cited from earlier work
[5] = system: PEDV; assay: Growth performance of nursery pigs challenged with PEDV, narasin in feed; format: in vivo, pig; conditions: for numerical increase of overall ADG compared to the control / numerical increase of overall G:F compared to the control: overall (Day 0 to 14)
Source text: Eighty-one weaning stage (21.8+/−0.6 days) commercial crossbred piglets (Wilson's Prairie View Farms, Burlington, Wis.) free of PEDV infection arrived at the site and six were used as potential replacement animals during the pre-challenge period (Day −7 to Day 0). Six piglets were removed at Day 0 immediately prior to PEDV challenge, resulting in fifteen pens containing five piglets/pen (n=75) animals. There were five pens per treatment. For balance of sentinel piglets within a block, a total of thirty-nine piglets of one gender and thirty-six of the other gender were used. The use of five pens (twenty-five piglets) per treatment group was estimated to detect significant differences (P<0.10) between treatment groups in growth performance and incidence of viral shedding.
as §1, §2
Diet formulations were manufactured at Provimi (Lewisburg, Ohio) and fed in meal form.
The effects of narasin inclusion level on mean body weights (BW), average daily weight gain (ADG), average daily feed intake (ADFI), feed efficiency (G:F), and feed conversion ratio (F:G) are shown in Table 1.

[6] = system: PEDV; assay: Viral shedding of PEDV in fecal swabs by real-time RT-PCR; format: in vivo, pig; conditions: for Viral shedding: only pigs positive for shedding
Experimental: as §1, §2
The effects of narasin levels (0, 30, 60 mg/kg) on within-day viral shedding of nursery pigs (Table 4) and percentage of nursery pigs shedding PEDV (Table 5) are compared. Fecal swabs were collected from all pigs on test daily from Day 0 to 14 of study. Each sample was labeled with pig identification, pen number, and sample day. All samples were frozen at the time of collection and stored until required for analysis. Only fecal swab samples collected from days 0, 1, 2, 3, 4, 5, 6, 7, 8, 9, and 14 were sent for analysis. Fecal swab samples were sent to the Iowa State Veterinary Diagnostic Laboratory (ISVDL) and were analyzed using real-time RT-PCR to determine viral shedding of PEDV.

[7] = 0, 30, 60 mg/kg feed, 14-d period
[8] = 60 mg/kg feed, Day 0 to 5, P<0.10

CC[C@@H](C(=O)O)[C@@H]1O[C@@H]([C@@H](C)[C@H](O)[C@H](C)C(=O)[C@H](CC)[C@H]2O[C@]3(C=C[C@@H](O)[C@]4(CC[C@@](C)([C@H]5CC[C@](O)(CC)[C@H](C)O5)O4)O3)[C@H](C)C[C@@H]2C)[C@@H](C)C[C@@H]1C [narasin]
effect of narasin level on mean of depression scores [1, 7]: not affected
effect of narasin level on mean or severity of gauntness scores [1, 7]: little effect
incidence of depression, animals ([1]; 30 mg/kg feed, 14-d period): 4 animals
Depression score, Severity ([1]; 30 mg/kg feed): 0.16
Diarrhea score, Severity ([1]; 30 mg/kg feed): 2.72
Gauntness score, Severity ([1]; 30 mg/kg feed): 0.68
Depression score, Incidence ([1]; 30 mg/kg feed): 4/25
Diarrhea score, Incidence ([1]; 30 mg/kg feed): 19/25
Gauntness score, Incidence ([1]; 30 mg/kg feed): 14/25
Gauntness score, Mean of Day 0 to 14 ([1]; 30 mg/kg feed): 0.14
Depression score, Mean of Day 0 to 14 ([1]; 30 mg/kg feed): 0.03
Diarrhea score, Mean of Day 0 to 14 ([1]; 30 mg/kg feed): 1.45
incidence of depression, animals ([1]; 60 mg/kg feed, 14-d period): 3 animals
Depression score, Severity ([1]; 60 mg/kg feed): 0.12
Diarrhea score, Severity ([1]; 60 mg/kg feed): 2.48
Gauntness score, Severity ([1]; 60 mg/kg feed): 0.52
Depression score, Incidence ([1]; 60 mg/kg feed): 3/25
Diarrhea score, Incidence ([1]; 60 mg/kg feed): 19/25
Gauntness score, Incidence ([1]; 60 mg/kg feed): 11/25
Gauntness score, Mean of Day 0 to 14 ([1]; 60 mg/kg feed): 0.14
Depression score, Mean of Day 0 to 14 ([1]; 60 mg/kg feed): 0.02
Diarrhea score, Mean of Day 0 to 14 ([1]; 60 mg/kg feed): 1.37
replication of dengue flavivirus [2]: block replication
immunohistochemistry score ([3]; 60 mg/kg feed, decreased from 3): 2
intestinal histology score ([3]; narasin level increased 0, 30, 60 mg/kg: decreased from 2 to 0): 0
toxicity to nursery pigs [4]: toxic
effect of narasin level on overall growth performance ([5]; 0, 30, 60 mg/kg feed, Day 0 to 14, P>0.10): no effect
differences for ADG, ADFI, G:F, or F:G ([5]; 0, 30, 60 mg/kg feed, Day 5 to 14): no statistical differences
BW ([5]; 30 mg/kg feed, Day 0 (PEDV challenge)): 16.9 lb
ADFI ([5]; 30 mg/kg feed, Day 0 to 5): 0.68 lb
ADG ([5]; 30 mg/kg feed, Day 0 to 5): 0.38* lb
F:G ([5]; 30 mg/kg feed, Day 0 to 5): 1.93 lb:lb
G:F ([5]; 30 mg/kg feed, Day 0 to 5): 0.551 lb:lb
increase of ADG compared to the control ([5]; 30 mg/kg feed, Day 0 to 5, P<0.10): 58.3%
ADFI ([5]; 30 mg/kg feed, Day 0 to 14): 1.00 lb
ADG ([5]; 30 mg/kg feed, Day 0 to 14): 0.70 lb
F:G ([5]; 30 mg/kg feed, Day 0 to 14): 1.48 lb:lb
G:F ([5]; 30 mg/kg feed, Day 0 to 14): 0.711 lb:lb
BW ([5]; 30 mg/kg feed, Day 5): 18.7 lb
ADFI ([5]; 30 mg/kg feed, Day 5 to 14): 1.23 lb
ADG ([5]; 30 mg/kg feed, Day 5 to 14): 0.92 lb
F:G ([5]; 30 mg/kg feed, Day 5 to 14): 1.38 lb:lb
G:F ([5]; 30 mg/kg feed, Day 5 to 14): 0.772 lb:lb
BW ([5]; 30 mg/kg feed, Day 14): 26.9 lb
BW ([5]; 30 mg/kg feed, Day −7 (arrival, allotment)): 14.9* lb
ADFI ([5]; 30 mg/kg feed, Day −7 to 0): 0.37 lb
ADG ([5]; 30 mg/kg feed, Day −7 to 0): 0.29 lb
F:G ([5]; 30 mg/kg feed, Day −7 to 0): 1.33 lb:lb
G:F ([5]; 30 mg/kg feed, Day −7 to 0): 0.802 lb:lb
numerical increase of overall ADG compared to the control ([5]; 30 mg/kg feed): 7.7%
numerical increase of overall G:F compared to the control ([5]; 30 mg/kg feed): 7.9%
BW ([5]; 60 mg/kg feed, Day 0 (PEDV challenge)): 16.7 lb
ADFI ([5]; 60 mg/kg feed, Day 0 to 5): 0.71 lb
ADG ([5]; 60 mg/kg feed, Day 0 to 5): 0.48* lb
F:G ([5]; 60 mg/kg feed, Day 0 to 5): 1.56 lb:lb
G:F ([5]; 60 mg/kg feed, Day 0 to 5): 0.670* lb:lb
increase of ADG compared to the control [5, 8]: 100%
increase of G:F compared to 0 mg/kg narasin [5, 8]: 78.7%
ADFI ([5]; 60 mg/kg feed, Day 0 to 14): 1.01 lb
ADG ([5]; 60 mg/kg feed, Day 0 to 14): 0.70 lb
F:G ([5]; 60 mg/kg feed, Day 0 to 14): 1.44 lb:lb
G:F ([5]; 60 mg/kg feed, Day 0 to 14): 0.698 lb:lb
BW ([5]; 60 mg/kg feed, Day 5): 19.2 lb
ADFI ([5]; 60 mg/kg feed, Day 5 to 14): 1.22 lb
ADG ([5]; 60 mg/kg feed, Day 5 to 14): 0.85 lb
F:G ([5]; 60 mg/kg feed, Day 5 to 14): 1.42 lb:lb
G:F ([5]; 60 mg/kg feed, Day 5 to 14): 0.708 lb:lb
BW ([5]; 60 mg/kg feed, Day 14): 26.9 lb
BW ([5]; 60 mg/kg feed, Day −7 (arrival, allotment)): 14.9* lb
ADFI ([5]; 60 mg/kg feed, Day −7 to 0): 0.36 lb
ADG ([5]; 60 mg/kg feed, Day −7 to 0): 0.26* lb
F:G ([5]; 60 mg/kg feed, Day −7 to 0): 1.38 lb:lb
G:F ([5]; 60 mg/kg feed, Day −7 to 0): 0.742 lb:lb
decrease of ADG compared to the control ([5]; 60 mg/kg feed, Day −7 to 0, P<0.10): 18.8%
numerical increase of overall ADG compared to the control ([5]; 60 mg/kg feed): 7.7%
numerical increase of overall G:F compared to the control ([5]; 60 mg/kg feed): 5.9%
duration of shedding ([6]; 0, 30, 60 mg/kg feed): generally decreased as narasin level increased
effect of narasin level on the percentage of pigs shedding PEDV ([6]; 0, 30, 60 mg/kg feed, P>0.10): no effect
viral shedding compared to the control ([6]; 30 mg/kg feed): lower (P<0.10) viral shedding on Day 2 and Day 3
Viral shedding ([6]; 30 mg/kg feed, Day 0): 0 cells/mL
Viral shedding ([6]; 30 mg/kg feed, Day 1): 1 cells/mL
Viral shedding ([6]; 30 mg/kg feed, Day 2): 1,005* cells/mL
Viral shedding ([6]; 30 mg/kg feed, Day 3): 152,889* cells/mL
Viral shedding ([6]; 30 mg/kg feed, Day 4): 7,543,717 cells/mL
Viral shedding ([6]; 30 mg/kg feed, Day 5): 108,303,640 cells/mL
Viral shedding ([6]; 30 mg/kg feed, Day 6): 879,972,048 cells/mL
Viral shedding ([6]; 30 mg/kg feed, Day 7): 1,422,120,182 cells/mL
Viral shedding ([6]; 30 mg/kg feed, Day 8): 268,967,479 cells/mL
Viral shedding ([6]; 30 mg/kg feed, Day 9): 63,817,042 cells/mL
Viral shedding ([6]; 30 mg/kg feed, Day 14): 2,256 cells/mL
viral shedding compared to the control ([6]; 60 mg/kg feed): lower (P<0.10) viral shedding on Day 2, 3, 4, 5, and 6
Viral shedding ([6]; 60 mg/kg feed, Day 0): 0 cells/mL
Viral shedding ([6]; 60 mg/kg feed, Day 1): 0 cells/mL
Viral shedding ([6]; 60 mg/kg feed, Day 2): 1* cells/mL
Viral shedding ([6]; 60 mg/kg feed, Day 3): 4,085* cells/mL
Viral shedding ([6]; 60 mg/kg feed, Day 4): 18,980* cells/mL
Viral shedding ([6]; 60 mg/kg feed, Day 5): 593,842* cells/mL
Viral shedding ([6]; 60 mg/kg feed, Day 6): 5,551,647* cells/mL
Viral shedding ([6]; 60 mg/kg feed, Day 7): 171,586,154 cells/mL
Viral shedding ([6]; 60 mg/kg feed, Day 8): 58,813,444 cells/mL
Viral shedding ([6]; 60 mg/kg feed, Day 9): 16,189,481 cells/mL
Viral shedding ([6]; 60 mg/kg feed, Day 14): 9,262 cells/mL
